Biological target: T1, human CB1 receptor (Homo sapiens, UniProt P21554)
T1 construct: expressed in transfected cells; membrane preparation
Assay: Cannabinoid Receptor-1 functional assay: inhibition of CP55940-induced [35S]GTPγS binding to membranes from CHO-K1 cells expressing the human CB1 receptor
Assay type: biochemical
Conditions: antagonizing CB1 receptor agonist CP55940 (3 nM), [35S]GTPγS SPA, read-out: Antagonism IC50
Description: Transfection and Cell Culture—The cDNA encoding the human CB1 (Cannabinoid Receptor-1) receptor (GenBank accession number NM_016083) was cloned from a human adipose tissue cDNA library and cloned into the eukaryotic expression vector pcDNA3.1 (Invitrogen).
Chinese Hamster Ovary cells (CHO-K1) stably expressing recombinant human CB1 receptors were generated by transfecting the plasmid containing the coding sequence of the human CB1 receptor in CHO-K1 cells, using lipofectamine, according to the manufacturers instructions. Resistant clones were selected in the presence of 600 μg/ml G418 (Life technology). Stably transfected CHO-K1 cells were maintained in Ham's F-12 culture medium (Invitrogen), supplemented with 10% fetal calf serum (Invitrogen), 100 U/ml penicillin, 100 μg/ml streptomycin (Life Technology), and 600 μg/ml G418.
Cannabinoid Receptor-1 Functional Assay.
Functional activities of the above examples of compounds of the invention were assessed in vitro by measuring their ability to inhibit CP55940-induced [^35S]GTPγS binding to membranes prepared from CHO-K1 cells expressing the human CB1 receptor (described in Transfection and Cell Culture). CP55940 is a well known non-selective CB1 and CB2 receptor agonist (e.g Felder et al., 1995, Molecular Pharmacology, (48) 443-50). Membranes were prepared by a standard procedure. Briefly, cells were harvested using 10 mM EDTA and collected by centrifugation. Pelleted cells were homogenized in ice-cold 20 mM Hepes (pH 7.4), 10 mM EDTA and protease inhibitors (Complete protease inhibitor cocktail tablet, Roche) using an Ultra Turrax Homogenizer. The homogenate was centrifuged at 14 000 rpm for 45 min. at 4° C. The resultant pellet was resuspended in the same buffer but with only 0.1 mM EDTA and was again centrifuged at 14 000 rpm for 45 min. at 4° C. The resulting pellet (membranes) was resuspended in 20 mM Hepes (pH 7.4), 0.1 mM EDTA, 2 mM MgCl2 and protease inhibitors and protein concentration was determined by Micro BCA Protein Assay Reagent Kit (Pierce Biotechnology) according to the manufacturers instructions. The [^35S]GTPγS SPA (Scintillation Proximity Assay) binding assay was performed by incubating 5 μg/well membranes prepared from CHO-K1 cells expressing the human CB1 receptor with 1 nM [^35S]GTPγS (Perkin Elmer—NEG 030H) in the presence of 3 nM of CP55940 and various concentrations of the test compounds at room temperature for 1 hr in 96-well microtiter plates. 0.4 mg/well SPA beads (PVT-WGA; RPNQ0001 Amersham Pharmacia Biotech) were then added and the incubation continued for further 30 min. on an orbital shaker. The assay buffer contained 50 mM HEPES (pH 7.5), 50 mM NaCl, 2.5 mM MgCl2, 0.1% BSA, 1 μM GDP and 100 μg/ml Saponin. Microtiter plates were centrifuged at 1500 rpm for 5 min. and radioactivity was read immediately using a Topcounter (PerkinElmer Life Sciences). Data were analyzed and IC50 values determined by non-linear regression analysis using the Prism software (GraphPad Software, San Diego).

T1 sequence (P21554 whole entry): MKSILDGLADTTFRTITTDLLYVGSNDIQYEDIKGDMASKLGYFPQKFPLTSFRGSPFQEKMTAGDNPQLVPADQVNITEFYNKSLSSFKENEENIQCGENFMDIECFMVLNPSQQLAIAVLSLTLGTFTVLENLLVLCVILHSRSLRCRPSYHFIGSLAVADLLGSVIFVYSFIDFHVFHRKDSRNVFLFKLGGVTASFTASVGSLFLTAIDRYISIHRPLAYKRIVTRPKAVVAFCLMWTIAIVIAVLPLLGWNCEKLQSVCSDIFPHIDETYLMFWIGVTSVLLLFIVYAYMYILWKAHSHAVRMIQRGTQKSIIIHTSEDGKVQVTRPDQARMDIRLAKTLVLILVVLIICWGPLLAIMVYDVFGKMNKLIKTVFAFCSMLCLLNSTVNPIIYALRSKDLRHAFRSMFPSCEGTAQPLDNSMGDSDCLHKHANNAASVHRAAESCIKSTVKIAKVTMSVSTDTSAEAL

Row | IC50 [nM] | Compound
1 | < 500 | C[C@H](c1ccc(C(F)(F)F)cc1)N(C)C(=O)c1nn(-c2ccccc2Cl)c(-c2ccc(Cl)cc2)c1C1CC(=O)NC1=O (stereo partly drawn) [Compound 5.01, 1-(2-Chloro-phenyl)-5-(4-chloro-phenyl)-4-(2,5-dioxo-pyrrolidin-3-yl)-1H-pyrazole-3-carboxylic acid methyl-[(R)-1-(4-trifluoromethyl-phenyl)-ethyl]-amide]
2 | < 500 | N#CNC(=O)Cc1c(C(=O)N2CCC(c3ccccc3F)CC2)nn(-c2ccccc2Cl)c1-c1ccc(Cl)cc1 [Compound 4.01, 2-{1-(2-Chloro-phenyl)-5-(4-chloro-phenyl)-3-[4-(2-fluoro-phenyl)-piperidine-1-carbonyl]-1H-pyrazol-4-yl}-N-cyano-acetamide]
3 | < 500 | CS(=O)(=O)NC(=O)Cc1c(C(=O)N2CCC(c3ccccc3F)CC2)nn(-c2ccccc2Cl)c1-c1ccc(Cl)cc1 [Compound 3.01, N-(2-{1-(2-Chloro-phenyl)-5-(4-chloro-phenyl)-3-[4-(2-fluoro-phenyl)-piperidine-1-carbonyl]-1H-pyrazol-4-yl}-acetyl)-methanesulfonamide]
4 | < 500 | C[C@H](c1ccc(C(F)(F)F)cc1)N(C)C(=O)c1nn(-c2ccccc2Cl)c(-c2ccc(Cl)cc2)c1CC(=O)NS(C)(=O)=O [Compound 3.02, 1-(2-Chloro-phenyl)-5-(4-chloro-phenyl)-4-(2-methanesulfonylamino-2-oxo-ethyl)-1H-pyrazole-3-carboxylic acid methyl-[(R)-1-(4-trifluoromethyl-phenyl)-ethyl]-amide]
5 | < 500 | C[C@@H](NC(=O)c1nn(-c2ccccc2Cl)c(-c2ccc(Cl)cc2)c1Cc1noc(=O)[nH]1)c1ccc(C(F)(F)F)cc1 [Compound 1.01, 5-(4-Chloro-phenyl)-1-(2-chloro-phenyl)-4-(5-oxo-4,5-dihydro-[1,2,4]oxadiazol-3-ylmethyl)-1H-pyrazole-3-carboxylic acid [(R)-1-(4-trifluoromethyl-phenyl)-ethyl]-amide]
6 | < 500 | C[C@H](c1ccc(C(F)(F)F)cc1)N(C)C(=O)c1nn(-c2ccccc2Cl)c(-c2ccc(Cl)cc2)c1CC(=O)NC#N [Compound 4.02, (1-(2-Chloro-phenyl)-5-(4-chloro-phenyl)-3-{methyl-[(R)-1-(4-trifluoromethyl-phenyl)-ethyl]-carbamoyl}-1H-pyrazol-4-yl)-N-cyano-acetamide]
7 | < 500 | N#CNC(=O)Cc1c(C(=O)N2CCC(Oc3cc(F)cc(F)c3)CC2)nn(-c2ccccc2Cl)c1-c1ccc(Cl)cc1 [Compound 4.03, {1-(2-Chloro-phenyl)-5-(4-chloro-phenyl)-3-[4-(3,5-difluoro-phenoxy)-piperidine-1-carbonyl]-1H-pyrazol-4-yl}-N-cyano-acetamide]
8 | < 500 | O=C1NC(=O)C(Cc2c(C(=O)N3CCC(c4ccccc4F)CC3)nn(-c3ccccc3Cl)c2-c2ccc(Cl)cc2)N1 (centres unmarked) [Compound 6.01, 5-{1-(2-Chloro-phenyl)-5-(4-chloro-phenyl)-3-[4-(2-fluoro-phenyl)-piperidine-1-carbonyl]-1H-pyrazol-4-ylmethyl}-imidazolidine-2,4-dione]
9 | < 500 | C[C@@H](NC(=O)c1nn(-c2ccccc2Cl)c(-c2ccc(Cl)cc2)c1CC1NC(=O)NC1=O)c1ccc(C(F)(F)F)cc1 (some centres unmarked) [Compound 6.02]
10 | < 500 | O=C(c1nn(-c2ccccc2Cl)c(-c2ccc(Cl)cc2)c1Cc1n[nH]c(=O)o1)N1CCC(c2ccccc2F)CC1 [Compound 2.01, 5-{5-(4-Chloro-phenyl)-1-(2-chloro-phenyl)-3-[4-(2-fluoro-phenyl)-piperidine-1-carbonyl]-1H-pyrazol-4-ylmethyl}-3H-[1,3,4]oxadiazol-2-one]

Row | Compound | IC50 [nM]
11 | 1-(2-Chloro-phenyl)-5-(4-chloro-phenyl)-4-(5-oxo-4,5-dihydro-[1,3,4]oxadiazol-2-ylmethyl)-1H-pyrazole-3-carboxylic acid ((R)-1-p-tolyl-ethyl)-amide [Compound 2.02] | < 500

Reference: US8173680B2, “Cannabinoid receptor modulators” (7TM Pharma A/S, priority 2007, dated 2012)
